Experiment [1] addresses T1, Oxytocin receptor (Homo sapiens) (UniProt P30559).
T1 sequence (whole entry): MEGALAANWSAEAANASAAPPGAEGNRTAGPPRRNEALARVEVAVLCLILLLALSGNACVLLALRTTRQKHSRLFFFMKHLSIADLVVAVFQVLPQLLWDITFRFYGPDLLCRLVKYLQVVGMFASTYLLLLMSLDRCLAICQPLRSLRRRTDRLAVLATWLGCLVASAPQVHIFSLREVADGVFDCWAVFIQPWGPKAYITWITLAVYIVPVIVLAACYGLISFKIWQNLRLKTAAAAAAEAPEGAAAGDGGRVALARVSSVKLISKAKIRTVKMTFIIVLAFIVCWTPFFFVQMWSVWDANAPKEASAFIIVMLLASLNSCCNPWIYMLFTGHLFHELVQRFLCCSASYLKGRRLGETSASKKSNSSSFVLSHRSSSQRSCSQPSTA
Briefly: Intrinsic agonist activity at human oxytocin receptor expressed in CHO cells assessed as increase in intracellular calcium flux measured for 90 sec by fluo-4 dye based FLIPR assay relative to control. In kind it is functional, cell-based. (In general: A change in cytosolic calcium serves as a functional read-out for many receptors and channels.)

Experiment [2] concerns the target T2, Oxytocin receptor (Homo sapiens, UniProt P30559).
T2 sequence (P30559 whole entry): T1 sequence (whole entry)
Briefly: Agonist activity at human oxytocin receptor expressed in CHO cells assessed as increase in intracellular calcium flux measured for 90 sec by fluo-4 dye based FLIPR assay. The class given is functional, cell-based.

The target of experiment [3] is T2, Oxytocin receptor. Briefly: Displacement of [3H]8-arginine-vasopressin from human oxytocin receptor expressed in CHO cell membrane incubated for 1 hr by liquid scintillation counting method. In kind it is cell membranes. On the technique in general: Displacement assays read how much labelled ligand stays bound in the presence of the test substance.

SMILES strings stand for the structures.

As for `CC[C@H](C)[C@@H]1NC(=O)[C@H](Cc2ccc(O)cc2)NC(=O)[C@@H](N)CSSC[C@@H](C(=O)N2CCC[C@H]2C(=O)N[C@@H](CC(C)C)C(=O)NCC(N)=O)N(C)C(=O)[C@H](CC(N)=O)NC(=O)[C@H](CCC(N)=O)NC1=O`, in experiment [1], the Intrinsic activity is 95%. Also, the EC50 (in general, the concentration at which the effect is half-maximal) at Oxytocin receptor [2] came to 0.99 nM. Also, the Ki – broadly, a measure of affinity in units of concentration, obtained from inhibition or displacement – on Oxytocin receptor [3] was 1.05 nM.
`CC[C@H](C)[C@@H]1NC(=O)[C@H](Cc2ccc(O)cc2)N(C)C(=O)[C@@H](N)CSSC[C@@H](C(=O)N2CCC[C@H]2C(=O)N[C@@H](CC(C)C)C(=O)NCC(N)=O)N(C)C(=O)[C@H](CC(N)=O)NC(=O)[C@H](CCC(N)=O)NC1=O`: the Intrinsic activity in experiment [1] was found to be 78%. In addition, the EC50 at Oxytocin receptor [2] came out at 6.98 nM.
Consider `CC[C@H](C)[C@@H]1NC(=O)[C@H](Cc2ccc(O)cc2)N(C)C(=O)[C@@H](N)CSSC[C@@H](C(=O)N2CCC[C@H]2C(=O)N[C@@H](CC(C)C)C(=O)NCC(N)=O)NC(=O)[C@H](CC(N)=O)NC(=O)[C@H](CCC(N)=O)NC1=O`, for which, in experiment [1], the Intrinsic activity came to 98%. For the same molecule, on Oxytocin receptor [2], the EC50 amounted to 23.9 nM. At Oxytocin receptor [3], this molecule came in with a Ki of 6.76 nM.
Take `CC[C@H](C)[C@@H]1NC(=O)[C@H](Cc2ccc(O)cc2)NC(=O)[C@@H](NC)CSSC[C@@H](C(=O)N2CCC[C@H]2C(=O)N[C@@H](CC(C)C)C(=O)NCC(N)=O)NC(=O)[C@H](CC(N)=O)NC(=O)[C@H](CCC(N)=O)NC1=O`: the Intrinsic activity in experiment [1] was 102%. Also, at Oxytocin receptor [2], the EC50 amounted to 4.77 nM. Further, on Oxytocin receptor [3], the Ki is 5.47 nM.
For the molecule `CC[C@H](C)[C@H]1C(=O)N[C@@H](CCC(N)=O)C(=O)N[C@@H](CC(N)=O)C(=O)N(C)[C@H](C(=O)N2CCC[C@H]2C(=O)N[C@@H](CC(C)C)C(=O)NCC(N)=O)CSSC[C@H](N)C(=O)N[C@@H](Cc2ccc(O)cc2)C(=O)N1C`, the Intrinsic activity in experiment [1] worked out at 94%. Also, on Oxytocin receptor [2], the EC50 is 283 nM.
The like results for `CC[C@H](C)[C@@H]1NC(=O)[C@H](Cc2ccc(O)cc2)N(C)C(=O)CCSSC[C@@H](C(=O)N2CCC[C@H]2C(=O)N[C@@H](CC(C)C)C(=O)NCC(N)=O)N(C)C(=O)[C@H](CC(N)=O)NC(=O)[C@H](CCC(N)=O)NC1=O` were, in that order, 97% and 7.98 nM.
With `CC[C@H](C)[C@@H]1NC(=O)[C@H](Cc2ccc(O)cc2)NC(=O)[C@@H](NC)CSSC[C@@H](C(=O)N2CCC[C@H]2C(=O)N[C@@H](CC(C)C)C(=O)NCC(N)=O)N(C)C(=O)[C@H](CC(N)=O)NC(=O)[C@H](CCC(N)=O)NC1=O`, the Intrinsic activity in experiment [1] worked out at 81%. Besides, the EC50 on Oxytocin receptor [2] worked out at 175 nM. On Oxytocin receptor [3], this molecule showed a Ki of 98.6 nM.
Regarding `CC[C@H](C)[C@@H]1NC(=O)[C@H](Cc2ccc(O)cc2)NC(=O)[C@@H](N)CSSC[C@@H](C(=O)N2CCC[C@H]2C(=O)N[C@@H](CC(C)C)C(=O)NCC(N)=O)NC(=O)[C@H](CC(N)=O)NC(=O)[C@H](CCC(N)=O)N(C)C1=O`, the EC50 on Oxytocin receptor [2] was over 1000 nM. Moreover, the Ki on Oxytocin receptor [3] was over 1010 nM.
`CC[C@H](C)[C@@H]1NC(=O)[C@H](Cc2ccc(O)cc2)NC(=O)[C@@H](N)CSSC[C@@H](C(=O)N2CCC[C@H]2C(=O)N[C@@H](CC(C)C)C(=O)NCC(N)=O)NC(=O)[C@H](CC(N)=O)NC(=O)[C@H](CCC(N)=O)NC1=O`: the Intrinsic activity in experiment [1] came out at 102%.
Turning to `CC[C@H](C)[C@@H]1NC(=O)[C@H](Cc2ccc(O)cc2)NC(=O)[C@@H](N)CSSC[C@@H](C(=O)N2CCC[C@H]2C(=O)N(C)[C@@H](CC(C)C)C(=O)NCC(N)=O)NC(=O)[C@H](CC(N)=O)NC(=O)[C@H](CCC(N)=O)NC1=O`, in experiment [1], the Intrinsic activity turned out to be 97%. Moreover, at Oxytocin receptor [2], the concentration giving a half-maximal response (EC50) stood at 0.52 nM. This molecule yielded a Ki at Oxytocin receptor [3] of 0.97 nM.
As for `CC[C@H](C)[C@H]1C(=O)N[C@@H](CCC(N)=O)C(=O)N[C@@H](CC(N)=O)C(=O)N[C@H](C(=O)N2CCC[C@H]2C(=O)N[C@@H](CC(C)C)C(=O)NCC(N)=O)CSSC[C@H](N)C(=O)N[C@@H](Cc2ccc(O)cc2)C(=O)N1C`, in experiment [1], the Intrinsic activity was 100%. For the same molecule, at Oxytocin receptor [2], the 50% effective concentration (EC50) was found to be 14.7 nM. Affinity on Oxytocin receptor [3] was put at a Ki of 113 nM.
For `CC[C@H](C)[C@@H]1NC(=O)[C@H](Cc2ccc(O)cc2)NC(=O)[C@@H](N)CSSC[C@@H](C(=O)N2CCC[C@H]2C(=O)N[C@@H](CC(C)C)C(=O)N(C)CC(N)=O)NC(=O)[C@H](CC(N)=O)NC(=O)[C@H](CCC(N)=O)NC1=O` the same measures were 102%, 0.47 nM and 1.32 nM.
Consider `CC[C@H](C)[C@@H]1NC(=O)[C@H](Cc2ccc(O)cc2)NC(=O)CCSSC[C@@H](C(=O)N2CCC[C@H]2C(=O)N[C@@H](CC(C)C)C(=O)NCC(N)=O)N(C)C(=O)[C@H](CC(N)=O)NC(=O)[C@H](CCC(N)=O)NC1=O`, for which, in experiment [1], the Intrinsic activity turned out to be 84%. For the same molecule, on Oxytocin receptor [2], the EC50 is 0.29 nM.
For `CC[C@H](C)[C@@H]1NC(=O)[C@H](Cc2ccc(O)cc2)NC(=O)CCSSC[C@@H](C(=O)N2CCC[C@H]2C(=O)N(C)[C@@H](CC(C)C)C(=O)NCC(N)=O)N(C)C(=O)[C@H](CC(N)=O)NC(=O)[C@H](CCC(N)=O)NC1=O` the same measures were 86% and 4.23 nM.
Take `CC[C@H](C)[C@@H]1NC(=O)[C@H](Cc2ccc(O)cc2)NC(=O)CCSSC[C@@H](C(=O)N2CCC[C@H]2C(=O)N[C@@H](CC(C)C)C(=O)N(C)CC(N)=O)N(C)C(=O)[C@H](CC(N)=O)NC(=O)[C@H](CCC(N)=O)NC1=O`: the Intrinsic activity in experiment [1] amounted to 84%. In addition, the EC50 at Oxytocin receptor [2] was 2.41 nM.
As to `CC[C@H](C)[C@@H]1NC(=O)[C@H](Cc2ccc(O)cc2)NC(=O)[C@@H](N)CSSC[C@@H](C(=O)N2CCC[C@H]2C(=O)N[C@@H](CC(C)C)C(=O)N(C)CC(N)=O)N(C)C(=O)[C@H](CC(N)=O)NC(=O)[C@H](CCC(N)=O)NC1=O`, the Intrinsic activity in experiment [1] worked out at 90%. Besides, the EC50 on Oxytocin receptor [2] was 10.8 nM. The molecule also returned a Ki on Oxytocin receptor [3] of 34.3 nM.
Take `CC[C@H](C)[C@@H]1NC(=O)[C@H](Cc2ccc(O)cc2)NC(=O)CCSSC[C@@H](C(=O)N2CCC[C@H]2C(=O)N[C@@H](CC(C)C)C(=O)NCC(N)=O)NC(=O)[C@H](CC(N)=O)NC(=O)[C@H](CCC(N)=O)NC1=O`: the Intrinsic activity in experiment [1] was 106%. The inhibitory constant (Ki) on Oxytocin receptor [3] turned out to be 0.33 nM.
As to `CC[C@H](C)[C@@H]1NC(=O)[C@H](Cc2ccc(O)cc2)NC(=O)[C@@H](N)CSSC[C@@H](C(=O)N2CCC[C@H]2C(=O)N(C)[C@@H](CC(C)C)C(=O)N(C)CC(N)=O)NC(=O)[C@H](CC(N)=O)NC(=O)[C@H](CCC(N)=O)NC1=O`, in experiment [1], the Intrinsic activity was found to be 96%. Moreover, the EC50 at Oxytocin receptor [2] worked out at 5.52 nM. In addition, the Ki on Oxytocin receptor [3] came to 10.7 nM.
Regarding `CC[C@H](C)[C@@H]1NC(=O)[C@H](Cc2ccc(O)cc2)NC(=O)CCSSC[C@@H](C(=O)N2CCC[C@H]2C(=O)N(C)[C@@H](CC(C)C)C(=O)N(C)CC(N)=O)NC(=O)[C@H](CC(N)=O)NC(=O)[C@H](CCC(N)=O)NC1=O`, the Intrinsic activity in experiment [1] turned out to be 86%. Moreover, the EC50 at Oxytocin receptor [2] came to 0.59 nM.
Consider `CC[C@H](C)[C@@H]1NC(=O)[C@H](Cc2ccc(O)cc2)NC(=O)[C@@H](N)CSSC[C@@H](C(=O)N2CCC[C@H]2C(=O)N[C@@H](CC(C)C)C(=O)NCC(N)=O)NC(=O)[C@H](CC(N)=O)N(C)C(=O)[C@H](CCC(N)=O)NC1=O`, for which the Intrinsic activity in experiment [1] turned out to be 100%. The EC50 at Oxytocin receptor [2] is 26 nM. For the same molecule, the Ki at Oxytocin receptor [3] was found to be 31.5 nM.
Take `CC[C@H](C)[C@H]1C(=O)N[C@@H](CCC(N)=O)C(=O)N[C@@H](CC(N)=O)C(=O)N(C)[C@H](C(=O)N2CCC[C@H]2C(=O)N[C@@H](CC(C)C)C(=O)NCC(N)=O)CSSCCC(=O)N[C@@H](Cc2ccc(O)cc2)C(=O)N1C`: the EC50 at Oxytocin receptor [2] was over 1000 nM.
Take `CC[C@H](C)[C@@H]1NC(=O)[C@H](Cc2ccc(O)cc2)NC(=O)[C@@H](N)CSSC[C@@H](C(=O)N2CCC[C@H]2C(=O)N(C)[C@@H](CC(C)C)C(=O)NCC(N)=O)N(C)C(=O)[C@H](CC(N)=O)NC(=O)[C@H](CCC(N)=O)NC1=O`: the Intrinsic activity in experiment [1] came out at 83%. Further, the half-maximal effective concentration (EC50) at Oxytocin receptor [2] was 15.6 nM. The molecule also showed a Ki on Oxytocin receptor [3] of 68.5 nM.

Values taken from ChEMBL document CHEMBL3813659 (Bioorg Med Chem, 2016).
